Results: patent US9980928B2, “Hydroxy aliphatic substituted phenyl aminoalkyl ether derivatives” (PROUS INSTITUTE FOR BIOMEDICAL RESEARCH, S.A., priority 2012, dated 2018)
“Also recorded” adds a separate entry of the source.

How the values were obtained:
[1] = tested on: mice; experiment: Tail suspension assay in mice; format: in vivo; details: 90 mg/kg, route not given
Procedure: Another method of measuring antidepressant activity that may be used to evaluate the compounds of the present invention is the tail suspension test in mice described in Vogel, H. G. and Vogel, W. H. (Eds.) Drug Discovery and Evaluation, Springer-Verlag Berlin Heidelberg, 1997) pp. 304-3059). The mouse tail suspension assay was conducted 60 minutes after dosing. The duration of immobility was recorded for a period of 5 minutes after tail suspension was initiated, and reduction in the duration of immobility by ≥50% relative to the control group indicated antidepressant activity. Statistical analysis was also performed by using one-way ANOVA followed by Dunnett's test to compare the data of test compound-treated and vehicle control groups. Significance was considered to be P<0.05.

[2] = tested on: C57BL6 mice; experiment: Maximum tolerated doses, 5 days oral administration; format: in vivo; details: mouse, doses up to 100 mg/kg/day during 5 days
Description: An alternative evaluation of the toxicity of the compounds of the present invention may be conducted using the method described in Branch, D. R. Exp Toxicol Pathol 2009, 61(2): 133-6 and Emmenegger, U. et al. Neoplasia 2011, 13(1): 40-8. […]

[3] = tested on: mice; experiment: Passive avoidance test; format: in vivo; details: 30 mg/kg i.p., test phase 24 hours later
Description: The passive avoidance task is a fear-aggravated test used to evaluate learning and memory in rodent models of CNS disorders. In this test, subjects learn to avoid an environment in which an aversive stimulus (such as a footshock) was previously delivered.
The animals can freely explore the light and dark compartments of the chamber and a mild footshock is delivered in one side of the compartment. Animals eventually learn to associate certain properties of the chamber with the footshock. The latency to pass the gate in order to avoid the stimulus is used as an indicator of learning and memory. The passive avoidance task is useful for evaluating the effect of novel chemical entities on learning and memory, as well as studying the mechanisms involved in cognition (Cappon, G. D. Eur J Pharmacol. 2008 579(1-3): 225-8).
A passive avoidance test with Example 2 administered i.p. at 30 mg/kg was conducted to assess the formation of recent and long-term memory (consolidation) using a negative reinforcement (0.6 mA footshock; 2 s).

[4] = tested on: mice; experiment: Novel object recognition test (acute); format: in vivo
Description: The novel object recognition task is used to evaluate cognition, particularly memory recognition, in rodent models of CNS disorders. This test is based on the spontaneous tendency of rodents to spend more time exploring a novel object than a familiar one. The choice to explore the novel object reflects the use of learning and memory recognition. The novel object recognition test provides a measure of activity in a novel environment allowing tests for emotional reactivity and also for novel object recognition, a cognitive domain that depends on hippocampal functional integrity. Animals were habituated to the presence of two identical objects (LEGO® pieces) during a single session of 5 minutes (training) and sniffing (exploration of an object was defined as pointing the nose to the object at a distance of <1 cm and/or touching it with the nose). Mice were injected with saline or with the compound to be tested and returned to their home cages. At 24 hours the animals were introduced in the same open field again with the same two items (familiarization), and again exploration in each of them for 5 minutes was registered. One hour later, the mice were retested in the open field for 3 minutes, but this time with one of the “familiar” objects replaced by a new one (test). To analyze cognitive performance, a discrimination index was calculated as the difference in time exploring the novel and familiar object, expressed as the ratio of the total time spent exploring both objects, which made it possible to adjust for any differences in total exploration time. This test is useful for assessing impaired cognitive ability in transgenic strains of mice and evaluating novel chemical entities for their effect on cognition (Zhang, R. J Alzheimers Dis 2012, 31(4): 801-12). […] Neuroplasticity 2007, 26496).

[5] = tested on: p-Akt; experiment: Western blot of p-Akt in mouse brain after i.p. administration; format: in vivo, mice; details: 30 mg/kg i.p., hippocampus, 1 hour after administration; hydrochloride
Procedure: Acute biochemical neuronal changes in neurotrophin and synaptic plasticity signaling after the administration of the compounds to be tested may be studied by Western blot assessment of ERK, Akt, phospholipase C (PLC), Trk-B, […] and CAMK II phosphorylation assays in the hippocampus, striatum and cortex at 1 hour post-administration.
Two groups of animals were used: C57BL control mice and mice treated by i.p. administration of a dose of 30 mg/kg of the compound to be tested diluted in saline solution or control saline (n=6 per group).
Animals were sacrificed by cervical dislocation at the corresponding time and different brain regions were dissected (frontal cortex, striatum, hippocampus, cerebellum) after […] of having administered the compounds. […] The supernatants were collected and the protein concentration was measured using the Dc protein assay kit (Bio-Rad, Hercules, Calif., USA) read in a 96-well plate. […]
After primary antibody incubation, membranes were washed with TBS-T and incubated for 1 hour at room temperature with the appropriate horseradish peroxidase-conjugated secondary antibody (1:2000; Promega, Madison, Wis., USA), and the reaction was finally visualized with the Western Blotting Luminol Reagent (Santa Cruz Biotechnology, Santa Cruz, Calif., USA). Western blot replicates were scanned and quantified using a computer-assisted densitometric analysis.

[6] = acute administration, test session

CNCCC(Oc1ccc(CCO)cc1)c1ccccc1.Cl (single isomer, unassigned) [Example 2, 2-[4-[3-(Methylamino)-1-phenylpropoxy]phenyl]ethanol hydrochloride]
antidepressant effect (duration of immobility) [1]: significant activity
oral toxicity, toxic effect [2]: did not show any toxic effect
time on the platform vs saline-treated group (recent memory formation) [3]: significantly longer time on the platform
time familiar object [4, 6]: 24.4%
time new object [4, 6]: 75.5%
discrimination of the two objects vs saline group ([4]; acute conditions): discriminated the two objects better
p-Akt levels (Akt phosphorylation) [5]: positive significant increase; also recorded: increase in Akt phosphorylation
